Reference: ChEMBL document CHEMBL1158261, “Cercophorins A-C: novel antifungal and cytotoxic metabolites from the coprophilous fungus Cercophora areolata” (1996)

What was measured:
Assay type in all cases: functional
[1] = system: Sordaria fimicola; assay: Antifungal activity against Sordaria fimicola NRRL 6459 assessed as reduction in radical growth at 200 ug/disk by centerpoint inoculation disk assay; set-up: scale not given: the % may be the effect or the level left
[2] = system: Bacillus subtilis; assay: […] activity against Bacillus subtilis ATCC 6051 at 200 ug/disk by standard disk assay; conditions: read-out: IZ
[3] = system: Staphylococcus aureus; assay: […] activity against Staphylococcus aureus ATCC 29213 at 200 ug/disk by standard disk assay; conditions: read-out: IZ
[4] = system: Ascobolus; assay: Antifungal activity against Ascobolus furfuraceus NRRL 6460 assessed as reduction in radical growth at 200 ug/disk by centerpoint inoculation disk assay; set-up: scale not given: the % may be the effect or the level left

Q: For `COC(=O)c1cc(OC)cc(O)c1OC(=O)c1c(O)cc2cc(C)oc(=O)c2c1O` [CERCOPHORIN C], which Activity [1] is on record?
A: Its Activity is 51%.

Q: Which results are given for `COC(=O)c1cc(OC)cc(O)c1C(=O)c1c(O)cc2cc(C)oc(=O)c2c1O` [CERCOPHORIN A]?
A: Activity [1]: 34%; zone of inhibition at 200 µg/disc [2]: 26 mm; zone of inhibition at 200 µg/disc [3]: 16 mm

Q: For `COC(=O)c1cc(OC)cc(OC(=O)c2c(O)cc3cc(C)oc(=O)c3c2O)c1O` [CERCOPHORIN B], which Activity [1] is on record?
A: The Activity was 10%.

Q: Which Activity [1] does the source give for `Cc1oc(=O)c2c(O)cc(O)c(C)c2c1C` [DECARBOXYCITRINONE] here?
A: The Activity was 100%.

Q: And the Activity [4]?
A: Its Activity is 100%.
